In patent US6632421B2, “Deodorant composition comprising a water-soluble zinc salt as odor-absorbing agent” (L'Oreal, priority 1996, dated 2003):

Experiment: odour absorption test with respect to natural sweat (sniff test on flasks)
Design: species or system human
Protocol: An odour absorption test was carried out with respect to natural sweat.
The axillary sweat from a number of people was thus removed in a sauna and combined to produce a sweat sample. In order to obtain the characteristic nauseating smell of sweat, before introducing the active substance, this sweat sample was incubated for 14 hours at a temperature of 37° C. 1 ml of the incubated sweat sample was introduced into each flask of active substance to be tested and into a control flask (without active substance). The active substance: 5.5 mg of Zn ion in the form of zinc pidolate, zinc chloride, zinc gluconate, zinc lactate, zinc phenolsulphonate and zinc sulphate, was then introduced respectively into each of the flasks of active substance to be tested.
The flasks were then incubated for a second time for 24 hours at a temperature of 37° C. and then for a third time for 3 days at room temperature.
Eight judges then smelled (“sniff test”) each of these flasks and graded the intensity of the smell on a scale from 0 to 4.

Molecule | absorption effect on the smell of sweat (sample containing a bactericide, check that the test is truly an odour absorption test) | intensity of the smell, grade on a scale from 0 to 4 (0=no smell, 4=strong smell) (5.5 mg of Zn ion in 1 ml incubated sweat, 24 hours at 37° C. then 3 days at room temperature, eight judges, control flask graded 4)
Oc1cc(Cl)ccc1Oc1ccc(Cl)cc1Cl [triclosan, 5-chloro-2-(2,4-dichlorophenoxy)phenol] | no absorption effect | 
zinc pyrrolidonecarboxylate [zinc pidolate] |  | best results
